How the values were obtained:
TAAR1-KO mice = experiment: Stereotypic counts, co-injection with cocaine, TAAR1-KO mice; assay type: in vivo; conditions: 5, 15 and 25 mg/kg co-injected with cocaine 10 mg/kg
Description: Experimentally naïve mice, of at least 12 weeks of age, were used for all behavioral experiments. The mice were randomly assigned to treatment or control groups, balanced by sex and weight. Locomotor activity was assessed using the automated locomotor analysis monitors (Omnitech Electronics, Columbus, OH, United States). The apparatus included four open field monitors. Each Open Field monitor consisted of sets of 16 light beams arrayed in the horizontal X and Y axes. The hardware detected beams broken by the animal, which allowed the software to determine the location of the mouse in the cage. Total distance covered by mice was used to characterize locomotor activity of the animals. The monitors were divided into four compartments (20 cm × 20 cm). Animals were tested individually for defined periods with 5-min intervals. The mice were first weighed and then placed into the apparatus, allowing for 30 min habituation. […] The locomotor activity was then measured for additional 1 h. […]
Supplementary file Image_2.TIF: FIGURE S2 In vivo studies with TAAR1-KO mice and compound 22 on stereotypic counts activity. […] The sum of stereotypic counts was assessed over 60 min after the injection of amphetamine and compound 22 in WT (solid bars) or TAAR1-KO mice (spotted bars). […] The sum of stereotypic counts was assessed over 60 min following the injection in WT (solid bars) or TAAR1-KO mice (dotted bars). […]

[1] = system: WT littermates (C57BL/6J × 129S2/Sv); experiment: Basal locomotor activity in WT littermates of TAAR1-KO mice; assay type: in vivo; conditions: 5 and 25 mg/kg alone, 60 min
Description: The Taarl^-/- (TAAR1-KO) mice were obtained from Lundbeck ([Wolinsky et al., 2007]). All wild type (WT) and TAAR1-KO mice used for experiments were generated from TAAR1-KO heterozygous mice in a C57BL/6J x 129S1/Sv mixed background. Experimentally naïve mice, of at least 12 weeks of age, were used for all behavioral experiments. The mice were randomly assigned to treatment or control groups, balanced by sex and weight. Locomotor activity was assessed using the automated locomotor analysis monitors (Omnitech Electronics, Columbus, OH, United States). The apparatus included four open field monitors. Each Open Field monitor consisted of sets of 16 light beams arrayed in the horizontal X and Y axes. The hardware detected beams broken by the animal, which allowed the software to determine the location of the mouse in the cage. Total distance covered by mice was used to characterize locomotor activity of the animals. The monitors were divided into four compartments (20 cm × 20 cm). Animals were tested individually for defined periods with 5-min intervals. The mice were first weighed and then placed into the apparatus, allowing for 30 min habituation. […] The locomotor activity was then measured for additional 1 h. […] The locomotor activity was assessed for 60 min following the injection. […]

GABAA = experiment: PDSP binding, primary screen; parameters: species or system human; conditions: 10 μM
Description: (§1) This was achieved through the identification of potential pharmacological targets of compound 22 using the Psychoactive Drug Screening Program (PDSP) at University of North Carolina-Chapel-Hill. PDSP provides a platform for screening novel psychoactive compounds on human proteins expressed in the central nervous system in order to identify their biological target(s) ([Besnard et al., 2012]). Binding studies were done on 47 targets at a single dose of compound 22 (10 μM; Supplementary Table S1). This primary screen yielded a total of 5 hits for compound 22 (Table 2). These hits were the serotonin, dopamine, and norepinephrine transporters, as well as the sigma 1 and sigma 2 receptors.
(§2) Supplemental Table 1. Compound 22 binding studies from PDSP: primary screen for compound 22 and subsequent hits (50% cut-off, hits highlighted in red). The primary screen was performed by PDSP as described previously (Besnard et al., 2012).

NMDA = experiment: PDSP binding, primary screen; parameters: species or system human; conditions: 10 μM
Description: as §1, §2

BZP site = experiment: PDSP binding, primary screen; parameters: species or system human; conditions: 10 μM
Description: as §1, §2

PBR = experiment: PDSP binding, primary screen; parameters: species or system human; conditions: 10 μM
Description: as §1, §2

Sigma 2 = experiment: PDSP binding, primary screen; parameters: species or system human; conditions: 10 μM
Description: as §1, §2

AMPA = experiment: PDSP binding, primary screen; parameters: species or system human; conditions: 10 μM
Description: as §1, §2

Clc1ccc(CNCc2ccc(Cn3cncn3)cc2)c(Cl)c1 [compound 22]
stereotypic counts (TAAR1-KO mice): significant increases in stereotypic counts | effect on basal locomotor activity [1]: did not significantly alter | % Inhibition (GABAA): 5.2% | % Inhibition (NMDA): -1.7% | % Inhibition (BZP site): 1.1% | % Inhibition (PBR): 23.1% | % Inhibition (Sigma 2): 78.4% | % Inhibition (AMPA): 13.4%

Reference: publication PMC6131539, “Behavioral Effects of a Potential Novel TAAR1 Antagonist” (Frontiers in Pharmacology, 2018)
